Assay results from PubChem BioAssay AID624143 (National Center for Advancing Translational Sciences (NCATS), 2012).

Test system: mouse plasma stability, LC-MS/MS, 48 h
Assay: qHTS Assay to Find Inhibitors of T. brucei phosphofructokinase: Mouse Plasma Stability Profiling
Details: at 2 µM; stronger effect = higher value

percent remaining: 100%
Structure (SMILES): O=C(Cc1ccc(Cl)c(Cl)c1)Nc1ccc(S(=O)(=O)Nc2ccon2)cc1
